Read-outs that look alike come from different tables or passages of the source.
How the values were obtained:
PKC [1] = details: Table 1, bryologs; read-out: PKC Affin; cited from earlier work
Erk1/2 [2] = test: Immunoblot analysis of Erk activation in serum-deprived fibroblasts; assay type: cell-based, human
Method: (§1) Primary skin fibroblasts isolated from skin biopsies were maintained in Dulbecco's Modified Eagle Medium (DMEM) with low glucose (Invitrogen, Grand Island, N.Y.) supplemented with 10% FBS in 6-well culture dishes (37° C., 5% CO2, 90% humidity) until the cells reached 90-100% confluence. Cells were cultured in completely serum-free medium to simulate stress conditions. After culture in serum-free media for 24 hours, cells were treated with vehicle, 0.3 nM bryostatin1, or 5 nM picolog. […] Nanomolar concentrations of picolog were previously found to be effective for cellular activation (Khan et al, 2009). The condition of the cultured skin fibroblasts was monitored with an inverted cell culture microscope (Westover Digital AMID Model 2000, Westover Scientific, Bothell, Wash.), controlled by a computer and images were captured with image acquisition software (Micron 2.0.0, Westover Scientific).
(§2) Protein lysates (20 μg of protein each) were boiled in 2× Laemmli buffer for 10 min and separated using a 10% […] Tris-Glycine gel (or 4-20% gradient Tris-Glycine gel for caspase-8). […] Signal intensities of the images were recorded in the ImageQuant RT-ECL (GE Life Sciences, Piscataway, N.J.) and densitometric quantification was performed using the IMAL software (Blanchette Rockefeller Neurosciences Institute, Morgantown, W. Va.). […]

human skin fibroblasts [3] = test: Protection of human skin fibroblasts under serum starvation (microscopy); assay type: cell-based; details: for viability and cellular integrity, with or without Erk inhibitor: serum deprived culture 5 days
Method: Skin fibroblast samples AG09555 (isolated and banked from a healthy person) and AG04560 (isolated and banked from a healthy person; Aging Cell Culture Repository of the National Institute on Aging) were obtained from the Coriell Institute for Medical Research (Camden, N.J.). Fresh fibroblasts were isolated from a skin punch biopsy (2-3 mm, upper arm) from a healthy subject (0078F45). The skin biopsy was conducted by qualified personnel under the supervision of Dr. Shirley Neitch with IRB approval of Marshall University (Huntington, W. Va.). All subjects signed informed consent forms under Marshal University rules and regulations. The method for isolating fibroblasts from skin biopsies was similar to the method previously described (Zhao et al, 2002; Khan and Alkon, 2006).
as §1

caspase-8 = test: Immunoblot analysis of caspase-8 expression in dermal fibroblasts; assay type: cell-based, human
Method: as §1, §2

[4] = tested on: matrix metalloproteins 1, 3, 9, 10 and 11 (MMP's); details: cited from earlier work
[5] = tested on: human skin equivalents (HSEs); test: Cell survival within human skin equivalents (HSEs); assay type: cell-based
Method: The Clonetics™ keratinocyte system containing normal adult human epidermal keratinocytes (NHEK) was used as source of epidermal keratinocytes (Lonza, Walkersville, Md.). Human adult epidermal keratinocyte cells were cultured in keratinocyte basal medium supplemented with appropriate growth factors (Clonetics KGM-Gold™ BulletKit™ [cat#00192060] contains one 500 ml bottle of keratinocyte basal medium-gold supplemented with bovine pituitary extract (BPE), 2 ml; hEGF, 0.5 ml; insulin, 0.5 ml; hydrocortisone, 0.5 ml; transferrin, 0.5 ml; epinephrine, 0.25 ml; GA-1000, 0.5 ml) in T25 culture flasks in an incubator at 37° C., 5% CO2, and 90% humidity. The growth medium was changed the day after seeding and every other day thereafter. Keratinocytes were used up to 18 population doublings. All cell preparations tested negative for mycoplasma, bacteria, yeast, and fungi. The condition of the skin keratinocytes was monitored with an inverted cell culture microscope (Westover Digital AMID Model 2000, Westover Scientific), controlled by a computer and images were captured using image acquisition software (Micron 2.0.0, Westover Scientific).
HSEs have been used commercially as clinical skin substitutes (Orcel® from FortiCell Bioscience, Englewood Cliffs, N.J.; FDA approved in 2001/2008; Apligraf® from Genzyme Tissue Repair Corporation, Cambridge, Mass., FDA approved in 2007) and as in vitro models for skin biochemical tests and toxicity tests (Mertsching et al, 2008; Zhang and Michniak-Kohn, 2012). We engineered an HSE composed of both epidermal and dermal layers; keratinocytes and fibroblasts were utilized to prepare the bilayer structures (Shevchenko et al, 2010). Dermal fibroblasts were cultured on a 6-well collagen-coated surface (Biocoat Cell Environment, Becton Dickinson, Bedford, UK) or BD BIOCOAT™ plates (BD Biosciences, San Jose, Calif.). Fibroblast cells were maintained in DMEM with low glucose (Invitrogen) supplemented with 10% FBS, and were grown to 100% confluence. Culture medium was removed and the cells were washed three times with DMEM (without serum) to remove all growth factors. Previously cultured epidermal keratinocytes were added to the fibroblasts as the second layer (FIG. 1). […] The condition of the HSEs was monitored with an inverted cell culture microscope (Westover Digital AMID Model 2000, Westover Scientific), controlled by a computer and images were captured via image acquisition software (Micron 2.0.0, Westover Scientific).

[6] = cited from earlier work
[7] = cited from earlier work; remark: listed apart in the source
PKC [8] = details: cited from earlier work
PKC [9] = details: [3H] phorbol dibutyrate competition; cited from earlier work
[10] = tested on: squamous cell carcinoma and melanoma; details: used topically; cited from earlier work
NCI 60 cell line screen = details: cited from earlier work
Erk1/2 [11] = details: RasGRP3-dependent manner; cited from earlier work
human skin fibroblasts [12] = test: Cell viability test by MTT assay; assay type: cell-based; details: 5 nM, serum starvation 15 days, versus untreated cells
Method: as §1
Cell viability assay was conducted by measuring 3-(4,5-dimethylthiazol-2-yl)-2,5-diphenyltetrazolium (MTT) bromide dye absorbance. After treatment, cells were labeled with MTT and dissolved by adding SDS-HCl solution to each well and mixing thoroughly with a pipette tip. Absorbance was read at 570 nm using a microplate reader. Data were presented in terms of relative cell viability.

protein kinase C = details: (−)-enantiomer; cited from earlier work

Q: With CCCCCCCC(=O)O[C@H]1/C(=C/C(=O)OC)C[C@H]2C[C@H](CO)OC(=O)C[C@H](O)C[C@@H]3CCC[C@H](C[C@@H]4CCO[C@H](/C=C/C(C)(C)[C@]1(O)O2)O4)O3 [Analog 1] as the compound, how does the Ki (PKC [1]) read?
A: 0.25 nM

Q: What does the source list for CCC/C=C/C=C/C(=O)O[C@H]1/C(=C/C(=O)OC)C[C@H]2C[C@H]([C@@H](C)O)OC(=O)C[C@H](O)C[C@@H]3C[C@H](OC(C)=O)C(C)(C)C(O)(C[C@@H]4C/C(=C/C(=O)OC)C[C@H](/C=C/C(C)(C)[C@]1(O)O2)O4)O3 [Bryostatin-1]?
A: activation of Erk1/2 (p-Erk/Erk) (Erk1/2 [2]; 0.3 nM, serum-free conditions): induced activation of Erk1/2; cellular integrity of freshly isolated fibroblasts (human skin fibroblasts [3]; 0.3 nM, 5 days serum-free, 6-well plates): healthy and appear to be normal; percentage of viable fibroblasts (human skin fibroblasts [3]; 0.3 nM, 5 days serum-free, treated versus control group): lower percentage of viable fibroblast in the control group; loss of dermal fibroblast cells (human skin fibroblasts [3]; 0.3 nM, 15 days serum free culture): no significant loss of dermal fibroblast cells; structural integrity and number of viable cells (human skin fibroblasts [3]; 0.3 nM, 35 days serum free culture, versus control group): greater structural integrity and a higher number of live, viable cells; cellular integrity of collagen matrix supported fibroblasts (human skin fibroblasts [3]; 25 days serum-starved): maintains the cellular integrity; viability and cellular integrity, with or without Erk inhibitor (human skin fibroblasts [3]): showed the greatest viability and good cellular integrity; survival of banked skin fibroblasts (human skin fibroblasts [3]; sub-nanomolar amounts, 20 days serum starved): prevented the death of human skin fibroblasts; caspase-8 expression levels, time course (caspase-8; after 3 days of treatment): greatest decrease; caspase-8 expression levels in cell lysate (caspase-8; treated versus control fibroblasts): reduced expression levels of caspase-8; production of matrix metalloproteins 1, 3, 9, 10 and 11 [4]: inhibits the production; protective effect in HSEs over time ([5]; 9 days versus 12 days in culture): decreases as a function of time; fibroblast survival and viability in HSEs versus untreated ([5]; single dose and two dose treated HSEs): significantly greater; fibroblast cell death in HSEs ([5]; single treatment 0.3 nM, versus untreated HSEs): showed fewer dead fibroblast cells overall; survival of fibroblast cells in HSEs, two doses versus single dose ([5]; two doses (0.3 nm) versus single 0.3 nM dose): greater than fibroblasts in HSEs receiving a single 0.3 nM dose; toxicity ([6]; 20 μg/week): no toxicity; adverse effect ([6]; more than 35 μg/week): may be associated with muscle pain

Q: Which results are given for CCC/C=C/C=C/C(=O)O[C@H]1/C(=C/C(=O)OC)C[C@H]2C[C@H]([C@@H](C)O)OC(=O)C[C@H](O)C[C@@H]3C[C@H](OC(C)=O)C(C)(C)[C@](O)(C[C@@H]4C/C(=C/C(=O)OC)C[C@H](/C=C/C(C)(C)[C@]1(O)O2)O4)O3 [Bryostatin-1]?
A: time detectable in the blood ([7]; after a single injection): 14 days; half-life (t1/2) in the blood stream ([7]; blood): 1 h; crossing of the blood-brain barrier ([7]; in vivo): crosses the blood-brain barrier; share of initial dose in the blood ([7]; intravenous injection, at 100 hrs): 1%

Q: With CCC1CC1CC1CC1CC1CC1CC1CC1CC1CC1CC1CC1CCC(=O)OC (centres unmarked) [DHA-CP6, cyclopropanated docosahexaenoic acid methyl ester] as the compound, how does the effective concentration (PKC [8]) read?
A: 10 nM

Q: For CC1=C[C@]23C(=O)[C@@H](C=C(COC(=O)c4ccccc4)[C@@H](O)[C@]2(O)[C@H]1OC(=O)c1ccccc1)[C@H]1[C@@H](C[C@H]3C)C1(C)C [Ingenol 3,20-dibenzoate], which Ki (PKC [9]) is on record?
A: 240 nM

Q: With C/C=C(/C)C(=O)O[C@H]1C(C)=C[C@]23C(=O)[C@@H](C=C(CO)[C@@H](O)[C@]12O)[C@H]1[C@@H](C[C@H]3C)C1(C)C [Ingenol-3-angelate] as the compound, how does the antitumor activity [10] read?
A: exhibits antitumor activity

Q: What does the source list for CC1=CC[C@H](C)C(C)(C)[C@@H]1/C=C/C(C)=C/CC[C@@]1(CO)[C@H](CCCO)/C(=C(/C)C=O)CC[C@]1(C)O [Iripallidal]?
A: GI50 (concentration required to inhibit growth by 50%) (NCI 60 cell line screen): micromolar to nanomolar range; phosphorylation of Erk1/2 (Erk1/2 [11]): induces phosphorylation of Erk1/2

Q: With COc1cccc(-c2cc(=O)c3ccccc3o2)c1N [PD98059] as the compound, how does the “effect on bryostatin-1 induced Erk activation” value (Erk1/2 [2]; PD98059 30 μM with bryostatin-1) read?
A: significantly blocked

Q: What about the “viability and cellular integrity, with or without Erk inhibitor” value (human skin fibroblasts [3]) of the same compound?
A: lowered the cell protective effects of bryostatin-1

Q: What does the source list for CCCCCCCC(=O)O[C@H]1/C(=C/C(=O)OC)CC2C[C@H](CO)OC(=O)C[C@H](O)C[C@@H]3CCC[C@H](C[C@@H]4CCO[C@H](/C=C/C(C)(C)[C@]1(O)O2)O4)O3 [picolog]?
A: cell survival of human skin fibroblasts (human skin fibroblasts [3]; 5 nM, serum free, 15 days): increased cell survival; relative cell viability (MTT) (human skin fibroblasts [12]): increased the relative viability of fibroblast cells

Q: With Octylindolactam V as the compound, how does the EC50 (protein kinase C) read?
A: 29 nM
